# Results: ChEMBL document CHEMBL4507319 (2021)
# Key:
# [1] = molecular target: Serine/threonine-protein kinase 10 (Homo sapiens) (UniProt O94804); test: LOK(h) Eurofins kinase panel; conditions: Compound concentration 1.0 uM
# [2] = molecular target: Vascular endothelial growth factor receptor 1 (Homo sapiens) (UniProt P17948); test: Flt1(h) Eurofins kinase panel; conditions: Compound concentration 1.0 uM
# [3] = molecular target: Mitogen-activated protein kinase 11 (Homo sapiens) (UniProt Q15759); test: SAPK2b(h) Eurofins kinase panel; conditions: Compound concentration 1.0 uM
# Sequence of Mitogen-activated protein kinase 11 (Homo sapiens) (Q15759 whole entry): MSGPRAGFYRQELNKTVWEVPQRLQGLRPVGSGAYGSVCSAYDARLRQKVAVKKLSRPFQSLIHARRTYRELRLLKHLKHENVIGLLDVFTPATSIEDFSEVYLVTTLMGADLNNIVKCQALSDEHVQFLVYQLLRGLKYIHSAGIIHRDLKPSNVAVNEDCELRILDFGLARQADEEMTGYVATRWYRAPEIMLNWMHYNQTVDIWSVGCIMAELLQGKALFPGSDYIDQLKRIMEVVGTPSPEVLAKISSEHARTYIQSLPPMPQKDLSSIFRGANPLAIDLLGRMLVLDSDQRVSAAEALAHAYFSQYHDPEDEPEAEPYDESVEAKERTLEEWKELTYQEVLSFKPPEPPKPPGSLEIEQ
# [4] = molecular target: Serine/threonine-protein kinase MARK1 (Homo sapiens) (UniProt Q9P0L2); test: MARK1(h) Eurofins kinase panel; conditions: Compound concentration 1.0 uM
# [5] = molecular target: Mitogen-activated protein kinase 9 (Homo sapiens) (UniProt P45984); test: JNK2alpha2(h) Eurofins kinase panel; conditions: Compound concentration 1.0 uM
# Sequence of Mitogen-activated protein kinase 9 (Homo sapiens) (P45984 whole entry, looked up): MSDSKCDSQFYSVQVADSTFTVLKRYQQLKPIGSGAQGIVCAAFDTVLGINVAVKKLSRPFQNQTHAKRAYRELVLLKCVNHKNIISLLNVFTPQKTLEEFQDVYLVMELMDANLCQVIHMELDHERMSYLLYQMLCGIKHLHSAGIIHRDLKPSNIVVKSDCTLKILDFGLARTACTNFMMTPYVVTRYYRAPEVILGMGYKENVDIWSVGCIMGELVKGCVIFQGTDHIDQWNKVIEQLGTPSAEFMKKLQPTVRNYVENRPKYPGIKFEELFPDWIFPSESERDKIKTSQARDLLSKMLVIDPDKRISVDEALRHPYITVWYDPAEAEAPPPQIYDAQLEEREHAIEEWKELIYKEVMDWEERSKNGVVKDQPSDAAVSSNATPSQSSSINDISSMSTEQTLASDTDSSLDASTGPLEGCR
# [6] = molecular target: T1, Mitogen-activated protein kinase 13 (Homo sapiens) (UniProt O15264); test: SAPK4(h) Eurofins kinase panel; conditions: Compound concentration 1.0 uM
# T1 sequence (whole entry): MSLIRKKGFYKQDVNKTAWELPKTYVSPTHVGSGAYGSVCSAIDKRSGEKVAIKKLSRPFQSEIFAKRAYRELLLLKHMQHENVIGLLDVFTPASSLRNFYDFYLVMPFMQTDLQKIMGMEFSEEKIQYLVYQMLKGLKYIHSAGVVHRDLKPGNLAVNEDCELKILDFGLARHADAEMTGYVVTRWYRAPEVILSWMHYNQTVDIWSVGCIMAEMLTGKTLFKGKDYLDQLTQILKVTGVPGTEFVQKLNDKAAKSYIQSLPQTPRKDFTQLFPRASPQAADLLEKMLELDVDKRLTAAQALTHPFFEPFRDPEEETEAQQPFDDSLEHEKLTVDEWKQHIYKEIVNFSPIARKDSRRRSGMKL
# [7] = molecular target: T2, Serine/threonine-protein kinase TBK1 (Homo sapiens) (UniProt Q9UHD2); test: TBK1(h) Eurofins kinase panel; conditions: Compound concentration 1.0 uM
# T2 sequence (whole entry): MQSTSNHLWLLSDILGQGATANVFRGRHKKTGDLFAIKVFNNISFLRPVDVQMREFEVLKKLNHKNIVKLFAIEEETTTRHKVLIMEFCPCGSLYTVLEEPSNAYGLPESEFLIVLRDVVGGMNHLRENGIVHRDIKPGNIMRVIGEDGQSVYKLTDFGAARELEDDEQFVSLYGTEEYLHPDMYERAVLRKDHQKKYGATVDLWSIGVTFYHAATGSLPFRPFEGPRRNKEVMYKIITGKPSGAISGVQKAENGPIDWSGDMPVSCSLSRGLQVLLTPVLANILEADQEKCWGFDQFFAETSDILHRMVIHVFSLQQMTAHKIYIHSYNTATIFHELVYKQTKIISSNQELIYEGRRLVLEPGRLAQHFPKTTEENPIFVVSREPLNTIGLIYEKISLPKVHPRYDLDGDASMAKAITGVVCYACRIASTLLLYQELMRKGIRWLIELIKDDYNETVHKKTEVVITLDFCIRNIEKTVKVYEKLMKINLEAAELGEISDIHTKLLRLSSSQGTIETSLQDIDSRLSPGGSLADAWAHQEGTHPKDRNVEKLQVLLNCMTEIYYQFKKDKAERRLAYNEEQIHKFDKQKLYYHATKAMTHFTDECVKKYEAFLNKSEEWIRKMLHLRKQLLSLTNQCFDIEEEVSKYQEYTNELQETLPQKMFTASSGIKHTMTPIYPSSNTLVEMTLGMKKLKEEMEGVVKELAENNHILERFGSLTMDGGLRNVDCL
# [8] = molecular target: Serine/threonine-protein kinase PAK 4 (Homo sapiens) (UniProt O96013); test: PAK4(h) Eurofins kinase panel; conditions: Compound concentration 1.0 uM
# Sequence of Serine/threonine-protein kinase PAK 4 (Homo sapiens) (O96013 whole entry, looked up): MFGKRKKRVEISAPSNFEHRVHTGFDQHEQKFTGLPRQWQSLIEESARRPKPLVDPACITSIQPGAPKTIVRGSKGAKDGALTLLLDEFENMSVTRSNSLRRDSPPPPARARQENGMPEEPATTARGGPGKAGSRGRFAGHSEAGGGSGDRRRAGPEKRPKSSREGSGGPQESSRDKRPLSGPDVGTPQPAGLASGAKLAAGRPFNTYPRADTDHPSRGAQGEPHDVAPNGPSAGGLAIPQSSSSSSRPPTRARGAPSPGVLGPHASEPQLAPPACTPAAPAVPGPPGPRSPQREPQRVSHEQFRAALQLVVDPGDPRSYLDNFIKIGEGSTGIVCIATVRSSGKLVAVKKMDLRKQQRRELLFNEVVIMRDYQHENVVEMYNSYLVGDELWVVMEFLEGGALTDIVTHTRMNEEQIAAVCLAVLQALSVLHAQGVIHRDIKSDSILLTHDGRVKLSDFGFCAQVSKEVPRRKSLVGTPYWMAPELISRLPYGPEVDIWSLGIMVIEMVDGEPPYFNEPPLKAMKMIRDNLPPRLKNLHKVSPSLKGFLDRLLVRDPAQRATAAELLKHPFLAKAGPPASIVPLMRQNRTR
# [9] = molecular target: Tyrosine-protein kinase Fgr (Homo sapiens) (UniProt P09769); test: Fgr(h) Eurofins kinase panel; conditions: Compound concentration 1.0 uM
# NCI-H520 = test: NCI- H520 cell line Proliferation assay; type: functional, Homo sapiens; conditions: time 3 day
# [10] = molecular target: Ribosomal protein S6 kinase alpha-3 (Homo sapiens, UniProt P51812)
# Sequence of Ribosomal protein S6 kinase alpha-3 (P51812 whole entry): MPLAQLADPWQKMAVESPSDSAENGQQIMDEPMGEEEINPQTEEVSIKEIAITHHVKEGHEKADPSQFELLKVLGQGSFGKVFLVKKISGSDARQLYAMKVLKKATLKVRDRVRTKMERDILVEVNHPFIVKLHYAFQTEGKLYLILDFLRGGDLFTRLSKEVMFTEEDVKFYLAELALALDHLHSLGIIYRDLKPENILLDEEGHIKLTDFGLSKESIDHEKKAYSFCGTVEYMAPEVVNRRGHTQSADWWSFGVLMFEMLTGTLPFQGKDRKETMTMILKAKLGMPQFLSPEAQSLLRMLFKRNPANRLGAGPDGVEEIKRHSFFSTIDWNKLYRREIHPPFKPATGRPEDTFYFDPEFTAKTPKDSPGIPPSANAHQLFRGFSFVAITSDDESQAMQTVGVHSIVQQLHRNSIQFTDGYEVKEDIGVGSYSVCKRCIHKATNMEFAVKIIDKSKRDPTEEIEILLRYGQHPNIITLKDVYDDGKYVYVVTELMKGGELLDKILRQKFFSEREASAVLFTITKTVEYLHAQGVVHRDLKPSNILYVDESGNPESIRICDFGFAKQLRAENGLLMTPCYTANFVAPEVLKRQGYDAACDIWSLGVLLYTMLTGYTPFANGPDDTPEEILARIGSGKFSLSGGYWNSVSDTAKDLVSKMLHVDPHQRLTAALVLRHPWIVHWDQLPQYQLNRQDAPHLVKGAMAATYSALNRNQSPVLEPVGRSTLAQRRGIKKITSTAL
# COLO 201 = test: COLO 201, control cell line Proliferation assay; type: functional, Homo sapiens; conditions: time 3 day
# [11] = molecular target: Activin receptor type-1-like (Homo sapiens) (UniProt P37023); test: ALK1(h) Eurofins kinase panel; conditions: Compound concentration 1.0 uM
# Sequence of Activin receptor type-1-like (Homo sapiens) (P37023 whole entry): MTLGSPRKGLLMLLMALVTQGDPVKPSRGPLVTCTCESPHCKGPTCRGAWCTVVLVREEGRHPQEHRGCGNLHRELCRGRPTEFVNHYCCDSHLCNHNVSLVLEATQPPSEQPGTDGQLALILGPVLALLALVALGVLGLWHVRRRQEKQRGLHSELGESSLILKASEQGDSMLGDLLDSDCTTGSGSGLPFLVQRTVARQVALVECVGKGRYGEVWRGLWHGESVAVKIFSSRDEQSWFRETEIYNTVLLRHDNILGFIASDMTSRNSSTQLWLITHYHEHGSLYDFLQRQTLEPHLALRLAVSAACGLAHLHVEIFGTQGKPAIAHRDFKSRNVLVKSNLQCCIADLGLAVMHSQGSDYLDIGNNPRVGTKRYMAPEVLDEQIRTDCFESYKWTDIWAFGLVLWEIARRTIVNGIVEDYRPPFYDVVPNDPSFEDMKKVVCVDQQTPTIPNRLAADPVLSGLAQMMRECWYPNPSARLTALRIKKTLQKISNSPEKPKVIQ
# [12] = molecular target: Tyrosine-protein kinase ABL2 (Homo sapiens) (UniProt P42684); test: Arg(h) Eurofins kinase panel; conditions: Compound concentration 1.0 uM
# U-251 = test: U251 cell line Proliferation assay; type: functional, Homo sapiens; conditions: time 3 day
# [13] = molecular target: Serine/threonine-protein kinase mTOR (Homo sapiens) (UniProt P42345); test: mTOR(h) Eurofins kinase panel; conditions: Compound concentration 1.0 uM
# [14] = molecular target: RAC-gamma serine/threonine-protein kinase (Homo sapiens) (UniProt Q9Y243); test: PKBgamma (h) Eurofins kinase panel; conditions: Compound concentration 1.0 uM
# Sequence of RAC-gamma serine/threonine-protein kinase (Homo sapiens) (Q9Y243 whole entry): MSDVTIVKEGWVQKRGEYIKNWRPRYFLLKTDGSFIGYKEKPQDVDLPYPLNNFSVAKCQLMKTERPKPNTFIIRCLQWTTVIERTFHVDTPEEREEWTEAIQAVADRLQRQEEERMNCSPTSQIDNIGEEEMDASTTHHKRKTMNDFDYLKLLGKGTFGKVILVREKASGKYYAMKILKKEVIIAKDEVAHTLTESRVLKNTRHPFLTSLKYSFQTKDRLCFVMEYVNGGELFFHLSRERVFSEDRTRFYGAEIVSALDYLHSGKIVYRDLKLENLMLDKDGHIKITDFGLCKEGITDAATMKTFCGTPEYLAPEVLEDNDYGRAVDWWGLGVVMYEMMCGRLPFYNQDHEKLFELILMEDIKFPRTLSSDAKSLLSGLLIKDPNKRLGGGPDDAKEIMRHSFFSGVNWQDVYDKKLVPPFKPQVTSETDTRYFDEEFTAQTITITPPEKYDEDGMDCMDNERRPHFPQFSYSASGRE
# [15] = molecular target: Homeodomain-interacting protein kinase 3 (Homo sapiens) (UniProt Q9H422); test: HIPK3(h) Eurofins kinase panel; conditions: Compound concentration 1.0 uM
# [16] = molecular target: T3, Serine/threonine-protein kinase MAK (Homo sapiens) (UniProt P20794); test: MAK(h) Eurofins kinase panel; conditions: Compound concentration 1.0 uM
# T3 sequence (whole entry): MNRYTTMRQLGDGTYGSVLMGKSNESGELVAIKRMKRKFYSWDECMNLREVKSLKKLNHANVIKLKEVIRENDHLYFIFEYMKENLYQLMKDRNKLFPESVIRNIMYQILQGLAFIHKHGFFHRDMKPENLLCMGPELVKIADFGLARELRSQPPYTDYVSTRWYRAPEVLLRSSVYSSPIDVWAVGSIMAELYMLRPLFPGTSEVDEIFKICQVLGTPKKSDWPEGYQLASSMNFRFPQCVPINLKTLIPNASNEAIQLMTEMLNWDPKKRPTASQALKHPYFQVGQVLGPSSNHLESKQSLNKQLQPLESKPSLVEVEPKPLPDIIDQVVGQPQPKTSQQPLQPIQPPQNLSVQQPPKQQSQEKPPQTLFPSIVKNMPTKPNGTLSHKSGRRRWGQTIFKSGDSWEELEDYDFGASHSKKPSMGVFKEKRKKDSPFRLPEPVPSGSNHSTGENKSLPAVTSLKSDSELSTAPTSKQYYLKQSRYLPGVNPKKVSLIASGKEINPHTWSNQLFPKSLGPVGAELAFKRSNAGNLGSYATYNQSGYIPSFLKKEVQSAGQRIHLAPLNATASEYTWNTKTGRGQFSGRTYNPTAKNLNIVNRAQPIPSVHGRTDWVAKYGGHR
# [17] = molecular target: Tyrosine-protein kinase Lck (Homo sapiens) (UniProt P06239); test: Lck(h) activated Eurofins kinase panel; conditions: Compound concentration 1.0 uM
# Sequence of Tyrosine-protein kinase Lck (Homo sapiens) (P06239 2-509 limits assumed): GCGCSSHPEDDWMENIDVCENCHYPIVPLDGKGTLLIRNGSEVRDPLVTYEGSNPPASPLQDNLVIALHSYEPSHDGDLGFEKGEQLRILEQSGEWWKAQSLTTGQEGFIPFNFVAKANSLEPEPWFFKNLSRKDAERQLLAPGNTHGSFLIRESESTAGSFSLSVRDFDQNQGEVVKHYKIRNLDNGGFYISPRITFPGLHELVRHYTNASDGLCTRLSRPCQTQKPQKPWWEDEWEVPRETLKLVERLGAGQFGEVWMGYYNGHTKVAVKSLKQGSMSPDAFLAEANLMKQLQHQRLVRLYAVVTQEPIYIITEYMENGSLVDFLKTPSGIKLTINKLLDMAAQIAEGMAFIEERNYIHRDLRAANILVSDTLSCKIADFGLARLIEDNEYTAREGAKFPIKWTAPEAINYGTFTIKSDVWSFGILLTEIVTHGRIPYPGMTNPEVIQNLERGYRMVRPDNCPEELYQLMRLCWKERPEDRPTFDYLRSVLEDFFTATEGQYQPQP
# [18] = molecular target: GABA-A receptor; anion channel (Rattus norvegicus) (UniProt O09028+P15431+P18506+P18508+P19969+P20236+P23574+P23576+P28471+P28473+P30191+P62813+P63079+P63138+Q91ZM7+Q9ES14); conditions: Compound concentration 10.0 uM
# Sequence of Vascular endothelial growth factor receptor 1 (Homo sapiens) (P17948 whole entry): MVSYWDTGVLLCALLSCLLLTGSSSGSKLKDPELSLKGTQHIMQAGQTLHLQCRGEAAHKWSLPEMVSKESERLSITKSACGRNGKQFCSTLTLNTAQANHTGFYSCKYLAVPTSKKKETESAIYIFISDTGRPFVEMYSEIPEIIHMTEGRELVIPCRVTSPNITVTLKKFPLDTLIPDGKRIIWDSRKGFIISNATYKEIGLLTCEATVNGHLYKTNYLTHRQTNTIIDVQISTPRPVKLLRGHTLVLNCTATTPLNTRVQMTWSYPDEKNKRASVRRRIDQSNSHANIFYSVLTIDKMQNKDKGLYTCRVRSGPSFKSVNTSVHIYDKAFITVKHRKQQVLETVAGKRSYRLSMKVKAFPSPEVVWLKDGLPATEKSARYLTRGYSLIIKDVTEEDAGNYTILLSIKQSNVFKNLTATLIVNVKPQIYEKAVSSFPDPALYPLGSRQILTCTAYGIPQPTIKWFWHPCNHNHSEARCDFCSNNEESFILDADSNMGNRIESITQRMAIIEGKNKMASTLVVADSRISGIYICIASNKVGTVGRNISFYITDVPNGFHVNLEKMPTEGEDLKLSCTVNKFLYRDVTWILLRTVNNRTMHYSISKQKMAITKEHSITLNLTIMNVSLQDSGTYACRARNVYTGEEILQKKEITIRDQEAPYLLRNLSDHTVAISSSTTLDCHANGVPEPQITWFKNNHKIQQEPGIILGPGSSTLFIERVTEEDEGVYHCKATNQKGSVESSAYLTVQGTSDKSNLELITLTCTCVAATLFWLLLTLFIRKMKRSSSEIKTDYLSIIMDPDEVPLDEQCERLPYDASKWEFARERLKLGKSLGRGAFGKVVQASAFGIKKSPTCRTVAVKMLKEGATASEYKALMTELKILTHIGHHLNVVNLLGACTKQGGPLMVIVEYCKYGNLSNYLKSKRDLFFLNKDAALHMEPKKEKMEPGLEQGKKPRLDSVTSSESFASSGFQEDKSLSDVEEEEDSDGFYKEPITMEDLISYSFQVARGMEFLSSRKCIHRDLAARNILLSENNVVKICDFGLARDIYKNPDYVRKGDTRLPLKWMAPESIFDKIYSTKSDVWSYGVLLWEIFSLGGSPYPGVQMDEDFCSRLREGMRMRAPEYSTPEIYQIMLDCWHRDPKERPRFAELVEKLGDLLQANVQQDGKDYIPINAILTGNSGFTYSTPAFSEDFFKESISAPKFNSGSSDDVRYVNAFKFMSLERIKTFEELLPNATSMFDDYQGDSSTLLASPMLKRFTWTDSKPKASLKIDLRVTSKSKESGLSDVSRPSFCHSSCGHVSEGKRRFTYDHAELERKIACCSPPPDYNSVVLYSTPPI
smiles,measurement,setting,value
CCc1ccccc1C(=O)Nc1n[nH]c2c(C)c(F)c(C3C(C#N)=C(C)N(C)C(C)=C3C#N)cc12 [BAY-3827],% residual kinase activity,[1],88%
same,% residual kinase activity,[2],96%
same,% residual kinase activity,[3],110%
same,% residual kinase activity,[4],66%
same,% residual kinase activity,[5],88%
same,% residual kinase activity,[6],111%
same,% residual kinase activity,[7],106%
same,% residual kinase activity,[8],91%
same,% residual kinase activity,[9],93%
same,Cell Proliferation IC50,NCI-H520,24.1 µM
same,IC50,[10],0.052 µM
same,Cell Proliferation IC50,COLO 201,16 µM
same,% residual kinase activity,[11],138%
same,% residual kinase activity,[12],101%
same,Cell Proliferation IC50,U-251,20.9 µM
same,% residual kinase activity,[13],116%
same,% residual kinase activity,[14],78%
same,% residual kinase activity,[15],100%
same,% residual kinase activity,[16],95%
same,% residual kinase activity,[17],108%
CC1=C(C#N)C(c2ccc3c(c2)c(NC(=O)c2ccccc2C)nn3C)C(C#N)=C(C)N1 [BAY-974],inhibition,[18],-1.23%
